The text below walks through data of article PMC10610134, “Verubulin (Azixa) Analogues with Increased Saturation: Synthesis, SAR and Encapsulation in Biocompatible Nanocontainers Based on Ca^2+ or Mg^2+ Cross-Linked Alginate” (Pharmaceuticals, 2023).

Data set [1] has as its system MCF7′, A549, VA13, HEK293T cell lines. Put plainly: MTT cytotoxicity, SAR statements over the cell line panel. In kind it is cell-based, human. The text has this:
(§1) The obtained series of verubulin analogues 2a–r (which also included three by-products isolated in the reactions according to Scheme 2) were initially evaluated for cytotoxicity against commonly used human breast cancer cell line MCF7′ (fast-growth subclone), human lung epithelial carcinoma cell line A549 and etiologically non-cancer immortalized lung fibroblast cell line VA13 (WI38 subline 2RA). Cytotoxicity against immortalized human embryonic kidney cell line HEK293T, characterized by a high growth rate, was also studied regarding cytotoxicity against non-cancerous fast-growth cells. A standard MTT assay was performed; verubulin (1) served as a positive reference. The data obtained are presented in Table 1 (for dose–response curves, see Supplementary Materials).
(§2) The cytotoxicity of the substances was tested using the 3-(4,5-dimethylthiazol-2-yl)2,5-diphenyl tetrazolium bromide (MTT) assay with some modifications. A total of 2500 cells per well for the MCF7′, HEK293T, A549 cell lines or 4000 cells per well for the VA-13 cell line were plated out in 135 μL of DMEM-F12 media (Gibco, Thermo Fisher Scientific, Waltham, MA, USA) in a 96-well plate and incubated in the 5% CO2 incubator for the first 20 h without treatment. Then, 15.8 μL of media–DMSO solutions of tested substances (final DMSO concentrations in the media were 0.5% or less) was added to the cells (triplicate each) and cells were treated for 64 h with 0.023 mg/L–50 mg/L (eight dilutions) of compounds 2f,n,o,r; 1.14 μg/L–2.5 mg/L (eight dilutions) of compounds 2a,b,d,g,h,k,l,p,q; 57.2 ng/L–125 μg/L (eight dilutions) of compounds 2e,i,j; 22.9 ng/L–50 μg/L (eight dilutions) of compounds 1,2c,m. Doxorubicin was used as a control substance. Then, the MTT reagent (Paneco LLC, Moscow, Russia) was added to cells up to a final concentration of 0.5 g/L (10 × stock solution in PBS was used) and incubated for 2 h at 37 °C in the incubator, under an atmosphere of 5% CO2. Then, the MTT solution was discarded, and 140 μL of DMSO (PharmaMed LLC, Moscow, Russia) was added. The plates were swayed on a shaker (120 rpm) to dissolve the formazan. The absorbance was measured using a microplate reader (VICTOR X5 Light Plate Reader, PerkinElmer, Waltham, MA, USA) at a wavelength of 555 nm (in order to measure formazan concentration). The results were used to construct dose–response graphs and to estimate IC50 values (IC50 is the concentration resulting in half of the maximal cytotoxic effect) with GraphPad Prism V, GraphPadSoftware, Inc., San Diego, CA, USA.

The subject of data set [2] is immortalized human embryonic kidney cell line HEK293T. Kind of data set: MTT cytotoxicity assay, HEK293T. The class given is cell-based. As to conditions: HEK-293T, 64 h treatment, MTT, read-out: IC50, nM HEK293T.
Text: as §1
Human breast cancer cell line MCF7′ and human lung adenocarcinoma cell line A549 were kindly provided by Dr. S. Dmitriev (Lomonosov Moscow State University), immortalized human fibroblast cell line VA13 (WI38 subline 2RA) was kindly provided by Dr. M. Rubtsova (Lomonosov Moscow State University), human embryonic kidney HEK293T cell line was kindly provided by Dr. E. Knyazhanskaya (Lomonosov Moscow State University). MCF7′, VA13, A549 and HEK293T cell lines were maintained in DMEM/F-12 (Thermo Fisher Scientific, Waltham, MA, USA) culture medium containing 10% fetal bovine serum (Thermo Fisher Scientific, Waltham, MA, USA) and 50 μg/mL penicillin and 0.05 mg/mL streptomycin at 37 °C (Thermo Fisher Scientific, Waltham, MA, USA) in 5% CO2. Cells were maintained at 37 °C in a humidified MCO-18AC incubator (Sanyo, Tokyo, Japan) supplied with 5% CO2. Cell cultures were tested for the absence of mycoplasma and validated by STR.
as §2
For orientation: Tetrazolium assays rely on reduction of a dye to a coloured formazan, in cell work by metabolically active cells.

The test system of data set [3] is tubulin (Tb) and microtubule-associated proteins (MAPs) from mouse brains. Kind of data set: Tubulin + MAP polymerization assay. The class given is biochemical. As to conditions: GTP-dependent polymerization, read-out: IC50 of tubulin polymerization (initial rates, optical density at 355 nm).
Data set [4] relates to A549 cell line. Put plainly: MTT assay of nanocontainer formulations, A549. In kind it is cell-based. Particulars: Homo sapiens, 48 h treatment, 2c concentration in formulations = 0.1 × COO− concentration. As to the method: The MTT assay was carried out on the A549 cell line and non-tumor hTERT-immortalized human fibroblasts for 48 h (Table 2; for cell survival curves, see Supplementary Materials).
Lung adenocarcinoma A549, breast adenocarcinoma MDA-MB-231 and non-tumor fibroblasts immortalized with h-TERT cell lines were obtained from the American Type Culture Collection (Manassas, VA, USA). Cells were routinely propagated in Dulbecco’s modified Eagle’s medium (DMEM) supplemented with 10% fetal bovine serum (HyClone, Logan, UT, USA), 2 mM L-glutamine, 100 U/mL penicillin and 100 μg/mL streptomycin (PanEco, Moscow, Russia) at 37 °C, 5% CO2 in a humidified atmosphere. Cells in the logarithmic phase of growth were used in the experiments.
The cytotoxicity of compounds for human cell lines (A549, MDA-MB-231, non-tumor fibroblasts) was assessed in MTT assays. […]
Cytotoxicity was assessed in a formazan conversion assay (MTT test) after a 48 h exposure. After the completion of drug exposure, 0.5 mg/mL 3-(4,5-dimethylthiazol-2-yl)-2,5-diphenyltetrazolium bromide (MTT reagent) was added to cells for 2 h, the culture medium was removed, cells were resuspended in 100 μL DMSO and the optical densities were measured on a Multiscan FC plate spectrophotometer (Thermo Fisher Scientific, Waltham, MA, USA) at a wavelength of 571 nm. […]

By IC50 is commonly meant the concentration that gives 50% inhibition. As for `COc1ccc(N(C)c2nc(C)nc3c2CCCC3)cc1` [Compound 2c, N-(4-methoxyphenyl)-N,2-dimethyl-5,6,7,8-tetrahydroquinazolin-4-amine], the “cytotoxicity, in words” value in data set [1] (MTT, 64 h) is given as “retained high cytotoxicity of the parent molecule”. Besides, in data set [1] (pair A549/VA13), the “selectivity towards tumor cells” value was “no selectivity”. Besides, the values for the concentration for half-maximal inhibition (IC50) in data set [2], in data set [3] and in data set [4] were 2.9 ± 0.5 nM, 7200 ± 1900 nM and 0.6 ± 0.06 µM, respectively.
